# Laboratory results taken from US12636260B2, “Application of α-asarone in preparation of medicine for preventing or treating hemorrhagic stroke” (CHENGDU XINRUI TAIKANG TECHNOLOGY CO., LTD., priority 2021, dated 2026).
# How the values were obtained:
# SAH rats [1] = assay: Secondary epilepsy in SAH rats (Racine score, seizures); type: in vivo, rat; settings: within 24 hours after SAH, group N, nimodipine injection 1 mg/kg intraperitoneally
# Protocol: The experimental materials, grouping, modeling method and administration protocol were the same as those in the effect embodiment 1, and the seizures of rats in each group were observed within 24 hours after SAH.
# SAH rats [2] = assay: Long-term survival rate of SAH rats; type: in vivo, rat; settings: nimodipine injection 1 mg/kg intraperitoneally, 2 hours after modeling then once a day for 14 days
# Protocol: The experimental materials, grouping and modeling methods were the same as those in effect embodiment 1. The rats were immediately administrated 2 hours after SAH modeling according to the grouping administration protocol and continued to be administrated once a day for 14 days thereafter, and the survival of the rats was observed and recorded for 14 days. The mortality rate within 24 hours in group S was as high as 53.8%.
# SAH rats [3] = assay: Short-term neurological function of SAH rats (Garcia score, beam balance test, bleeding score); type: in vivo, rat; settings: for Beam balance score / Garcia score: SAH model, 24 hours after modeling
# Protocol: (§1) Experimental grouping: At 2 h after endovascular perforation or collagenase VII injection, Zea Longa score was used to evaluate the neurological function of rats. Successful model rats were randomly divided into groups for administration.
# (§2) All groups were administrated through the tail vein injection except for group N administrated intraperitoneally.
# The rats were fasted for 12 hours before operation, and were anesthetized with 4% isoflurane, and kept anesthetized with 2% isoflurane. The animals were fixed in the supine position with the body temperature maintained at about 37° C. A traditional skin incision of the neck was performed along the midline. The muscle and fascia were separated along the medial margin of the sternocleidomastoid muscle to expose the right side, then the common carotid artery (CCA), external carotid artery (ECA) and internal carotid artery (ICA) were bluntly separated with disposal lines placed at CCA proximal end, ICA and ECA for use. The CCA proximal end and the ECA were ligated, and the ICA was temporarily clamped with an arterial clip, and then a small hole was poked with a needle at about 4 mm from the bifurcation at the CCA. A nylon suture was introduced into the CCA from the hole and advanced through the ICA after releasing the arterial clip, and the suture was inserted intracranially. […] The suture moved forward for roughly 2 mm to perforate the artery followed by instant withdraw, and then the suture was completely removed and the ICA was ligated. Finally, the incision was cleaned with normal saline and sutured. The sham group conducted the same procedure as the model group except for the perforation. After awakening from anesthesia, the animals were raised normally.
# The SAH severity was grading after rat's euthanasia, i.e., completing the evaluation of short-term neurological function. The score was determined by the amount of subarachnoid hemorrhage on the surface of basal cistern and brain tissue which was divided into six parts by the Willis ring composed of basilar artery, anterior cerebral artery, internal carotid artery, posterior cerebral artery and posterior communicating artery. Each part was graded from 0 to 3 points according to the amount of subarachnoid blood clots, i.e., 0 points: no subarachnoid blood; 1 point: a small amount of subarachnoid blood; 2 points: moderate amount of blood clots with recognizable arteries; 3 points: blood clots cover all arteries in the area. All 6 part scores were added up for a total of 18 points. According to the final score, SAH hemorrhage severity could be divided into mild subarachnoid hemorrhage (0 to 7 points), moderate subarachnoid hemorrhage (8 to 12 points), and severe subarachnoid hemorrhage (13 to 18 points). The moderate to severe SAH models were selected for statistical analysis (score≥8 points).
# (§3) According to Zea Longa's neurological function score, the rats were scored 2 hours after the operation when they were awake from anesthesia. Successful model rats with a score of 1 to 3 points were enrolled in the group: • 0 points: no neurological deficits with normal activity; • 1 point: inability to fully extend the contralateral forepaw; • 2 points: the animal appears to turn in circles when crawling; • 3 points: the animal tends to lean to the hemiplegic side; • 4 points: the animal cannot walk spontaneously or loses consciousness. 1.4 Assessment of Short-Term Neurological Function
# The neurological function of rats was comprehensively evaluated with Garcia score and beam balance test 24 hours after modeling. The criteria of Garcia score are shown in Table 1, which evaluates the movement, sensation, climbing and limb symmetry of the rats with the score range of 3 to 18 points. The lower the score, the more severe the neurological injury. The criteria of the beam balance test are shown in Table 2, which evaluated the proprioception and body coordination of rats with the score range of 0 to 6 points. […]
# ICH rats = assay: Short-term neurological function of ICH rats (Garcia score, beam balance test); type: in vivo, rat; settings: for Beam balance score / Garcia score: ICH model, 24 hours after modeling
# Protocol: as §1, §2
# The rats were fasted for 12 hours before operation, and were anesthetized with 4% isoflurane, and kept anesthetized with 2% isoflurane. The animals were fixed in the prone position in a stereotaxic apparatus with the body temperature maintained at about 37° C. A traditional skin incision of the head was prepared along the midline. According to the stereotaxic atlas of the rat brain translated by Zhuge Qichao (George Paxinos, Charles Watson, Paxinos, Watson, & Zhuge Qichao. The Rat Brain in Stereotaxic Coordinates [M]. People's Medical Publishing House, 2005), the right caudate nucleus of the rat was determined as 0.0 mm anterior, 3.0 mm lateral to the bregma, and 5.5 mm ventral to the cortical surface. After labeling, we drilled an open window in the skull, and 1 μL of 0.5 U collagenase VII was slowly injected for 5 minutes with a microinjector. After the injection, the needle was stagnated for 8 minutes and slowly withdrawn. Then the scalp was sutured after the burr hole of skull was sealed with a sterile bone wax, and the rats were returned to the cage for normal feeding. The sham group conducted the same procedure as the model group, but received an equal volume of physiological saline into the caudate nucleus.
# as §3
# The neurological function of rats was comprehensively evaluated with Garcia score and beam balance test 24 hours after modeling. The criteria of Garcia score are shown in Table 1, which evaluates the movement, sensation, climbing and limb symmetry of the rats with the score range of 3 to 18 points. The lower the score, the more severe the neurological injury. The criteria of the beam balance test are shown in Table 2, which evaluated the proprioception and body coordination of rats with the score range of 0 to 6 points. The higher the score, the more severe the neurological injury. Scoring was done independently by a technician blinded to the modeling and drug administration.
# mouse bone marrow cells = assay: Mouse bone marrow micronucleus test by flow cytometry; type: in vivo; settings: mice
# Protocol: Experimental grouping and administration: The animals were randomly divided into five groups with 10 […] in each group: blank control group (blank group, administrated blank emulsion with the same volume as the high-dose group of α-asarone), cyclophosphamide group (CTX group, 40 mg/kg), low dose of α-asarone emulsion injection group (prepared by preparation embodiment 7, 100 mg/kg/day, ASA-L group), medium dose of α-asarone emulsion injection group (prepared by preparation embodiment 7, 150 mg/kg/day, ASA-M group), and high dose of α-asarone emulsion injection group (prepared from preparation embodiment 7, 200 mg/kg/day, ASA-H group).
# All drugs were administrated through the tail vein for continuous 4 days except for the single injection of the positive control drug cyclophosphamide (CTX) 24 hours before sampling. After 24 hours of the last administration, the mice were sacrificed to separate both femurs. The femoral bone marrow cells were washed with PBS and filtered by 300 mesh nylon cell sieves to prepare a single-cell suspension. The suspension was centrifuged at 1650 rpm for 5 min, and the cell concentration was adjusted to 5×10^6 cells/mL by PBS resuspension. For each sample, 100 μL of the cell suspension was incubated with 400 μL of the PIPES-PI solution (10 mL of PIPES solution (concentration of 3.5 mg/mL)+0.5 mg PI+0.01 mL Triton X-100 (concentration of 0.1%)), gently blown and mixed, at 4° C. in the dark for 30 min and detected by a flow cytometry. […] The higher the value, the stronger the genotoxicity.
# [4] = group N, nimodipine injection 1 mg/kg intraperitoneally
# [5] = group V, vinpocetine injection 2 mg/kg tail vein
# [6] = CTX group, 40 mg/kg, single injection 24 hours before sampling
# [7] = group B, β-asarone emulsion injection 20 mg/kg tail vein
structure (smiles),measurement,setting,value
"COCCOC(=O)C1=C(C)NC(C)=C(C(=O)OC(C)C)C1c1cccc([N+](=O)[O-])c1 (centres unmarked) [nimodipine, reference compound]",Clonic seizures (%),SAH rats [1],18.8%
same,Racine score,SAH rats [1],0.81 ± 1.56
same,Tonic seizures (%),SAH rats [1],6.2%
same,Survival rate,"SAH rats [2]; Day 14, group N",58.3%
same,24-hour mortality rate,SAH rats [2]; group N,25.0%
same,Beam balance score,SAH rats [3]; [4],3.01
same,Garcia score,SAH rats [3]; [4],11.33
same,Beam balance score,ICH rats; [4],3.89
same,Garcia score,ICH rats; [4],8.92
"CCOC(=O)C1=C[C@]2(CC)CCCN3CCc4c(n1c1ccccc41)[C@@H]32 [vinpocetine, reference compound]",Beam balance score,SAH rats [3]; [5],3.54
same,Garcia score,SAH rats [3]; [5],10.30
same,Beam balance score,ICH rats; [5],3.27
same,Garcia score,ICH rats; [5],10.56
"O=P1(N(CCCl)CCCl)NCCCO1 (centres unmarked) [CTX, cyclophosphamide, reference compound]",MNPCE,mouse bone marrow cells; [6],0.86 ± 0.25
same,PCE,mouse bone marrow cells; [6],36.46 ± 8.01
same,fMNPCE (‰),mouse bone marrow cells; [6],24.36 ± 8.03 ‰
same,micronucleus rate compared to the blank emulsion group,mouse bone marrow cells; cyclophosphamide 40 mg/kg (P<0.01),significantly higher
"C/C=C\c1cc(OC)c(OC)cc1OC [β-asarone, reference compound]",effect against the neurological impairment,"SAH rats [3]; SAH model rats, group B, β-asarone emulsion injection 20 mg/kg",no obvious effect
same,Beam balance score,SAH rats [3]; [7],3.70
same,Garcia score,SAH rats [3]; [7],10.51
same,effect against the neurological impairment,"ICH rats; ICH model rats, group B, β-asarone emulsion injection 20 mg/kg",no obvious effect
same,Beam balance score,ICH rats; [7],3.76
same,Garcia score,ICH rats; [7],9.12
